The results in this text go back to PMC11320734 (ACS Pharmacology & Translational Science, 2024).

In brackets after ≈: the same amount, converted by molar mass. Read-outs that look alike come from different tables or passages of the source.

Series [1] concerns the target T1, hCB1R (Homo sapiens, UniProt P21554). In words: cell-based. The note with it: Table 1; mean ± SD; read-out: EC50 hCB1R (cAMP assay).
The next series in a line: Solubility (Table 1). It is filed as physicochemical. The following applies: thermodynamic from solid. How it is done:
(§1) For the determination of the octanol/water distribution coefficient (logD), the carrier-mediated distribution system (CAMDIS)-assay was used as described elsewhere.[38] Kinetic and thermodynamic solubilities were assessed using the lyophilization solubility assay (LYSA) and thermodynamic solubility assay (THESA), respectively. For the LYSA, the solubility of RNB- 61 in phosphate buffer at pH 6.5 from an evaporated 10 mM DMSO compound stock solution was measured. Two aliquots of the test compounds were dried and dissolved in phosphate buffer at pH 6.5. The solutions were then filtered and diluted (3 different dilution levels for each compound) before high throughput mass spectrometry (MS) analysis was performed in an Agilent RapidFire system. Each test compound was quantified using a 6-point calibration curve prepared with the same DMSO starting solution. For THESA, RNB-61 (8.6 mg per mL solvent/vehicle) was stirred in HPLC vials (9 × 12 × 32 mm, Waters) at 350 rpm for 15 h. The presence of solid particles was determined by microscopic analysis of 10 μL samples. If the active pharmacological ingredient (API) was completely dissolved, more solid API was added before stirring for another 15 h. This step was repeated for up to 96 h or until residual solid particles could be detected. Samples (0.5 mL) were transferred to Eppendorf Ultrafree filter tubes (Filter: PVDF 0.22 μm) and centrifuged at 14,500 rpm for 10 min. The filtrates were diluted in ethanol and analyzed by ultra-performance liquid chromatography (UPLC). Measurements were repeated in 0.05 M aqueous phosphate buffer and in fasted (FaSSIF) and fed (FeSSIF) simulated gastrointestinal fluids.

Series [2] is described as follows: Octanol/water distribution coefficient (logD), CAMDIS assay. It is filed as physicochemical. The note with it: octanol/water; read-out: logD. How it is done: as §1
A short description of series [3]: Parallel artificial membrane permeability (PAMPA) assay. It is filed as in vitro ADME. The following applies: PAMPA, Table 1; read-out: PAMPA Peff. How it is done:
The general permeability of the compound was assessed using the parallel artificial membrane permeability (PAMPA) assay and the permeability-glycoprotein (P-gp) assay was used to specifically test for brain penetration. PAMPA data were generated as previously reported by our group.[44] The P-gp assay, which evaluates the brain penetration of test compounds, was performed as described elsewhere.[45] Briefly, transfected porcine kidney epithelial (LLC-PK1) cells expressing human or mouse P-gp were cultured on 96-well semipermeable filter membrane plates (Millipore, Darmstadt, Germany). Cells formed a polarized monolayer with tight junctions that acted as a barrier between apical and basolateral compartments. P-gp was expressed in the apical-facing membrane of the monolayer (tightness confirmed using Lucifer yellow). To determine the unidirectional permeability (Papp) of RNB-61, samples were added separately to the apical (for A > B Papp) and basolateral (for B > A Papp) sides of the cell monolayer (i.e., donor compartments), and RNB-61 movement into the respective receiver compartments was measured by LC-MS/MS over a 3 h incubation at 37 °C. The effect of P-gp was measured by expressing the efflux ratio of the unidirectional A > B and B > A Papp values. The mean permeability (A > B and B > A Papp) was determined in the absence of P-gp via the addition of the selective P-gp inhibitor, tariquidar.
(The PAMPA barrier holds no transporters, so it reflects passive diffusion.)

The nature of series [4]: Microsomal clearance. It is filed as in vitro ADME. The following applies: human, human microsomes; Table 1.
A further series addresses human wild type CB2R (Homo sapiens, UniProt P34972). As to the kind of experiment: cAMP assay in CHO cells. It is filed as cell-based. Details: expressed in transfected cells; host or cells: CHO cells. For orientation: cAMP levels reflect the balance of adenylyl cyclase and phosphodiesterase activity.
The target in a further series is human CB2R (Homo sapiens, UniProt P34972). As to the kind of experiment: Competition binding assay with [3H]-CP55940, HEK cell membranes. The note with it: for hCB2R selectivity: Ki hCB1R over Ki hCB2R.
For series [5], the target named is T1, hCB1R. The description is as above.
Experimental: (§3) Competition and saturation binding assays were performed using the radiolabeled CB1R/CB2R agonist [^3H]-CP55940 (PerkinElmer).
(§4) Binding reactions were terminated by vacuum filtration onto 0.5% polyethylenimine presoaked GF/B filter plates (Packard) using a Filtermate cell harvester followed by 6 brief washes with 0.3 mL/well of ice-cold wash buffer. Wash buffer comprising 50 mmol L^–1 Tris- HCl, 5 mmol L^–1 MgCl2, 2.5 mmol L^–1 EDTA, and 0.5% fatty acid-free BSA, pH 7.4. Plates were dried at 50 °C for 1 h and liquid scintillation counting was used to determine levels of bound radiolabel. IC50 values and Hill slopes were determined with a 4-parameter logistic model using ActivityBase (ID Business Solution, Guilford, UK) and pKi values were determined using the Cheng–Prusoff equation as shown below: [drawing 1] where S indicates the concentration of the substrate and Km depicts the affinity constant of the substrate.
Series [6] is described as follows: Microsomal clearance. It is filed as in vitro ADME. The note with it: rat, rat microsomes, Table 1.
The target in series [7] is T2, CB2R in wild-type rat spleen membranes (Rattus norvegicus, UniProt Q9QZN9).
T2 construct: from tissue; host or cells: rat spleen membranes
It is filed as binding. The note with it: WT rat spleen membranes.

Series [8] concerns UUO-induced kidney fibrosis. As to the kind of experiment: Unilateral ureteral obstruction (UUO) model of kidney fibrosis. It is filed as in vivo, Sprague–Dawley rats. The following applies: 32 mg kg^–1, day 5, time-course experiment. How it is done:
(§2) In the ischemia/reperfusion (I/R) model of acute kidney injury (AKI),[47],[48] the compounds were administered orally by gavage to C57BL/6 mice 30 min before ischemia obtained by clamping both renal arteries and veins for 25 min, followed by 24 h of reperfusion. Mice were anesthetized using xylazine (10 mg kg^–1)/ketamine (100 mg kg^–1) injected intraperitoneally. Sham treated mice were treated identically except for the temporary closure of the renal vessels. After 24 h, under reanesthesia, plasma was taken for biomarker analysis. Thereafter, mice still in deep anesthesia were sacrificed by cervical dislocation. Creatinine, BUN (blood urea nitrogen), NGAL (neutrophil gelatinase-associated lipocalin), osteopontin, and KIM1 (kidney injury molecule-1) levels were determined using the following commercially available standard assays: creatinine: Roche Diagnostics 03263991, BUN: Roche Diagnostics 04460715, NGAL: BioPorto, Kit046 + Kit042, osteopontin: R&D Systems, MOST00, KIM-1: Abnova, KA1064. To assess fibrotic effects, we used the unilateral ureteral obstruction (UOO) model in Sprague–Dawley rats.[49] For the UOO model, rats were sacrificed after 5, 8, and 11 days and the percentage of PicroSirius Red positive areas (indicator of collagen III–I deposition) were measured in 4 μm histological cross sections of the kidney after 2% paraformaldehyde perfusion fixation and paraffin embedding. The extend of kidney fibrosis was quantified based on PicroSirius Red staining of 10 renal sections about 1 mm apart from each kidney. The collagen–III-I-positive pixel counts were determined in the cortical aspect of each kidney section from 10 optical fields using a 40× objective. As the total area analyzed was identical for all kidneys under investigation, the absolute number of pixels was used as the relevant readout. Vehicle treated animals received saline gavage only. The details of PicroSirius Red staining were previously described.[22]

Series [9] has as its system renal I/R-induced acute kidney injury. In words: Ischemia/reperfusion (I/R) model of acute kidney injury. It is filed as in vivo, C57BL/6 mice. Here is the method: as §2
Setting [10] is: Table 1, mean ± SD, read-out: EC50 hCB2R (cAMP assay).

T1 sequence (P21554 whole entry): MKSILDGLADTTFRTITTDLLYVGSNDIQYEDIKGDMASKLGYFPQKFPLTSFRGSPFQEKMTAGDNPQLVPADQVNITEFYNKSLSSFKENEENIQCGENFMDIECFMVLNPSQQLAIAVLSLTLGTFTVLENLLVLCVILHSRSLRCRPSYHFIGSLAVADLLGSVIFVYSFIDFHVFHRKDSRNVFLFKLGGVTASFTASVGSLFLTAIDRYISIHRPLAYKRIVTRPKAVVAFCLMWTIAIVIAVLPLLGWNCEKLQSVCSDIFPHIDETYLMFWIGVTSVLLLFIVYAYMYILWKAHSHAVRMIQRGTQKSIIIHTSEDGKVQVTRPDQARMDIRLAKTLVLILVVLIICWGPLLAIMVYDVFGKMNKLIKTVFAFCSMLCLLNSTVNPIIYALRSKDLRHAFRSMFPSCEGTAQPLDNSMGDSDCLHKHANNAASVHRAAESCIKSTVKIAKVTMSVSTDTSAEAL
human wild type CB2R, sequence (P34972 whole entry): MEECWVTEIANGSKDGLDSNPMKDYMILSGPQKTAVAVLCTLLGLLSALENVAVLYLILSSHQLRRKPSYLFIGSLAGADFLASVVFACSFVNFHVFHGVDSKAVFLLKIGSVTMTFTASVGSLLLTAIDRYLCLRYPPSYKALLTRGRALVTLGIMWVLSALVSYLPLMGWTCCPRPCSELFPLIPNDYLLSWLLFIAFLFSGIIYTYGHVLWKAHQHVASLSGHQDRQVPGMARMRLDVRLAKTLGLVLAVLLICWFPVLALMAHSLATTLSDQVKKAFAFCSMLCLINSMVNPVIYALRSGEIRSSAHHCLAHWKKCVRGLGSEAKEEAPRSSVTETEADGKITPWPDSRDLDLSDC
human CB2R, sequence (P34972 whole entry): as above
T2 sequence (Q9QZN9 whole entry): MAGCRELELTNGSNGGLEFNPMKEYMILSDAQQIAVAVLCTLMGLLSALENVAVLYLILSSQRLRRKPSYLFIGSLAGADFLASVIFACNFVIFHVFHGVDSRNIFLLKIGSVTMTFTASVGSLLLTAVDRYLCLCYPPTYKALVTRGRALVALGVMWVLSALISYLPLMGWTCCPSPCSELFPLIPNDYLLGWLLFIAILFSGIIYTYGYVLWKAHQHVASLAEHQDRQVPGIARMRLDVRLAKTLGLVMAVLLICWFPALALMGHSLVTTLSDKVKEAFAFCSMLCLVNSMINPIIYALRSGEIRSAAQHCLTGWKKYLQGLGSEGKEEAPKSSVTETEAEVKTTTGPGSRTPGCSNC
Experimental for human CB2R: as §3, §4

In general, EC50 refers to the concentration needed to bring the measured effect to its halfway point. The term solubility denotes how much of the substance goes into solution per volume. Read a low solubility as a poorly soluble substance. A word on the logD: it is lipophilicity at a set pH, counting ionised and neutral species. What is called microsomal CLint is the capacity of the preparation to metabolise the compound, expressed as a volume cleared per time. Read a high microsomal CLint as rapid turnover. One may read the Ki as the dissociation constant of the complex between target and ligand, obtained from inhibition or displacement. The low end stands for tighter binding, the high end for weaker binding. For the compound `COCCOCCc1cc(NC(=O)C(C)(C)S(=O)(=O)C2CCOCC2)on1` [RNB-70], the EC50 on hCB1R [1] was > 10000 nM; on human wild type CB2R (setting [10]), 13 ± 2.58 nM. For the same compound, in “Solubility (Table 1)”, the solubility was > 510 µg/mL. The logD in series [2] amounted to 0.8. The Papp in series [3] came out at 5.9 ×10⁻⁶ cm/s. Besides, the microsomal CLint in “Microsomal clearance [4]” is < 10 µL/min/mg. Besides, the hCB2R selectivity on human CB2R is recorded as >559. For the same compound, at hCB1R [5], the Ki is > 10000 nM.
For `N#Cc1cc(NC(=O)CCc2nc(-c3ccc(F)cc3Cl)no2)cnc1CC(F)(F)F` [RNB-73], the figures for the EC50 at hCB1R [1] and at human wild type CB2R (setting [10]) were > 10000 nM and 7.13 ± 2.19 nM, respectively. The solubility in the series “Solubility (Table 1)” was < 1 µg/mL. In addition, the logD in series [2] came out at 3.86. The Papp in [3] amounted to 7.4 ×10⁻⁶ cm/s. The microsomal CLint in “Microsomal clearance [4]” and in “Microsomal clearance [6]” was < 10 µL/min/mg throughout. The hCB2R selectivity on human CB2R is recorded as >153. The Ki at hCB1R [5] was > 10000 nM.
`CC(C)(Oc1ccc(C(F)(F)F)cn1)C(=O)Cc1cc(C(C)(C)C)no1` [RNB-90]: the EC50 on hCB1R [1] was determined as 19.6 ± 1.18 nM; at human wild type CB2R (setting [10]), 0.26 ± 0.05 nM. The solubility in “Solubility (Table 1)” is < 1 µg/mL. In series [2], the logD came to 4.07. For the same compound, the Papp in series [3] came to 2 ×10⁻⁶ cm/s. In addition, the microsomal CLint in the series “Microsomal clearance [4]” was 15 µL/min/mg; in “Microsomal clearance [6]” it was 81 µL/min/mg. The hCB2R selectivity at human CB2R turned out to be 307.
Compound `CC1(C)C(C(=O)c2cn(CCN3CCOCC3)c3ccccc23)C1(C)C` [RNB-92] came in with a solubility in “Solubility (Table 1)” of 2 µg/mL (≈ 5.64 µM). Further, the logD in [2] amounted to 3.43. Further, the results for the microsomal CLint in the series “Microsomal clearance [4]” and in the series “Microsomal clearance [6]” were 420 µL/min/mg and 730 µL/min/mg, respectively. Also, on human wild type CB2R, the response was half-maximal at 0.17 ± 0.01 nM (EC50).
Take `Cc1c(C(=O)NN2CCCCC2)nn(-c2ccc(Cl)cc2Cl)c1-c1ccc(Cl)cc1` [SR1]: in series [7] (competitor 1 μM), the “reduction of [3H]-RNB-61 radioactivity” value is recorded as “did not result in a significant difference”.
With `Cc1c(C(=O)c2cccc3ccccc23)c2cccc3c2n1[C@H](CN1CCOCC1)CO3` [WIN55,212–2], in series [7] (competitor 10 μM), the “reduction of [3H]-RNB-61 radioactivity” value is listed as “significant reduction”.
`CCOC(=O)[C@H](CCc1ccccc1)N[C@@H](C)C(=O)N1CCC[C@H]1C(=O)O` [enalapril, reference compound]: the “collagen–III-I positive area vs vehicle” value in series [8] is “No significant difference”.
On to `Oc1ccc(C2CNCCc3c2cc(O)c(O)c3Cl)cc1` (centres unmarked) [fenoldopam, reference compound], for which, in series [9] (20 mg kg^–1), the “reduction of BUN compared to vehicle” value is reported as 39% and the “reduction of plasma creatinine compared to vehicle” value came out at 55%.
For `CN(C(=O)c1cc(C(F)(F)F)ccc1OCC(C)(C)O)c1cc(C(C)(C)C)nn1CC1CCC1` [regioisomer of RNB-61], the “activity (data not shown)” value on human CB2R (assay not specified) is “inactive”.
For the compound `CC1(C)CC(O)CC(C)(C)N1[O]` [tempol, reference compound], in series [9] (50 mg kg^–1), the “reduction of BUN compared to vehicle” value is reported as 26%, the “reduction of plasma KIM-1 compared to vehicle” value is 57%, the “reduction of plasma NGAL compared to vehicle” value is recorded as 43% and the “reduction of plasma creatinine compared to vehicle” value is reported as 35%. Moreover, the “reduction of plasma osteopontin compared to vehicle” value in series [9] (50 mg kg^–1) is 49%.
